Test results published in ChEMBL document CHEMBL4483862, “Open-source discovery of chemical leads for next-generation chemoprotective antimalarials” (2018).

System: Plasmodium berghei
Experiment: Luciferase/luciferin-expressing antifolate-resistant parasites were used to infect a culture of HepG2 cells that were pre-incubated with compounds. Infected hepatocytes emit light due to the luciferase reaction. Assay results are presented as the percent inhibition of light emission compared to control. […]
Format: functional
Conditions: sporozoite; for IC90: read-out: LUCIFERASE INFECTION ASSAY - IC90

SMILES	IC90	also measured
Cc1nc(C(=O)NNC(=O)c2c(-c3c(Cl)cccc3Cl)noc2C)cs1	3.12 µM	IC50 (HEPG2TOX_HILL_SLOPE 1.49, HEPG2TOX_R_SQUARED 0.872, PBLUC_HILL_SLOPE 12.3, PBLUC_R_SQUARED 0.357, read-out: LUCIFERASE INFECTION ASSAY - IC50): 2.61 µM
Cc1nc2ccccn2c1-c1ccnn1S(=O)(=O)c1ccc(F)cc1	3.78 µM	IC50 (HEPG2TOX_HILL_SLOPE 1.46, HEPG2TOX_R_SQUARED 0.888, PBLUC_HILL_SLOPE 12.2, PBLUC_R_SQUARED 0.241, read-out: LUCIFERASE INFECTION ASSAY - IC50): 3.16 µM
Oc1ccc(CN2CCN(c3ccccn3)CC2)c2cccnc12	> 10 µM	IC50 (HEPG2TOX_HILL_SLOPE 1.46, HEPG2TOX_R_SQUARED 0.941, PBLUC_HILL_SLOPE 3.25, PBLUC_R_SQUARED 0.21, read-out: LUCIFERASE INFECTION ASSAY - IC50): 7.97 µM
COc1ccc(C(=O)/C=C/c2cc(Br)c(OCC(=O)N(C)C)c(OC)c2)c(OC)c1	4.46 µM	IC50 (HEPG2TOX_HILL_SLOPE 1.45, HEPG2TOX_R_SQUARED 0.95, PBLUC_HILL_SLOPE 1.66, PBLUC_R_SQUARED 0.857, read-out: LUCIFERASE INFECTION ASSAY - IC50): 1.19 µM
Cc1ccc(-n2c(C)cc(C(=O)Cn3nc(C)c(C)c(C#N)c3=O)c2C)cc1C	> 10 µM	IC50 (HEPG2TOX_HILL_SLOPE 1.5, HEPG2TOX_R_SQUARED 0.806, PBLUC_HILL_SLOPE 3.65, PBLUC_R_SQUARED 0.115, read-out: LUCIFERASE INFECTION ASSAY - IC50): 9.8 µM
CCn1c2ccccc2c2nnc(SCC(=O)c3cc(C)n(C)c3C)nc21	> 10 µM	IC50 (HEPG2TOX_HILL_SLOPE 1.47, HEPG2TOX_R_SQUARED 0.958, read-out: LUCIFERASE INFECTION ASSAY - IC50): > 10 µM
Brc1ccc(-[n+]2nc(-c3ccccc3)nn2-c2nn[nH]n2)cc1	4.45 µM	IC50 (HEPG2TOX_HILL_SLOPE 1.48, HEPG2TOX_R_SQUARED 0.648, PBLUC_HILL_SLOPE 2.42, 13.8, PBLUC_R_SQUARED 0.208, 0.342, read-out: LUCIFERASE INFECTION ASSAY - IC50): 2.56 µM
Cc1ccc(Cn2nc(C)c(/C=C/C(=O)N3CCN(S(=O)(=O)c4cccs4)CC3)c2C)cc1	> 10 µM	IC50 (HEPG2TOX_HILL_SLOPE 1.48, HEPG2TOX_R_SQUARED 0.941, PBLUC_HILL_SLOPE 12.2, PBLUC_R_SQUARED 0.462, read-out: LUCIFERASE INFECTION ASSAY - IC50): 9.53 µM
CCCn1c(C)cc(/C=C(\C#N)C(=O)Nc2ccc3c(c2)OCO3)c1C	2.3 µM	IC50 (HEPG2TOX_HILL_SLOPE 1.46, HEPG2TOX_R_SQUARED 0.846, PBLUC_HILL_SLOPE 2.22, PBLUC_R_SQUARED 0.625, read-out: LUCIFERASE INFECTION ASSAY - IC50): 0.857 µM
Cc1cc(C)c2cc(C(=O)Nc3ccc(N4CCN(C)CC4)nc3)[nH]c2c1	3.64 µM	IC50 (HEPG2TOX_HILL_SLOPE 1.47, HEPG2TOX_R_SQUARED 0.9, PBLUC_HILL_SLOPE 16.4, PBLUC_R_SQUARED 0.482, read-out: LUCIFERASE INFECTION ASSAY - IC50): 3.19 µM
Cc1nnsc1C(=O)Nc1nc(C(F)(F)F)c(-c2ccccc2)s1	> 8.91 µM	IC50 (HEPG2TOX_HILL_SLOPE 1.46, HEPG2TOX_R_SQUARED 0.922, PBLUC_HILL_SLOPE 11.5, PBLUC_R_SQUARED 0.414, read-out: LUCIFERASE INFECTION ASSAY - IC50): 8.03 µM
COc1cc(-c2ccc(N3CCN(c4ccncc4)CC3)nc2)cc(OC)c1OC	> 8.12 µM	IC50 (HEPG2TOX_HILL_SLOPE 1.45, HEPG2TOX_R_SQUARED 0.424, PBLUC_HILL_SLOPE 3.58, PBLUC_R_SQUARED 0.452, read-out: LUCIFERASE INFECTION ASSAY - IC50): 6.09 µM
COc1cc(/C=C/C(=O)Oc2c(Cl)cc(Cl)c3ccc(C)nc23)cc(OC)c1OC	3.54 µM	IC50 (HEPG2TOX_HILL_SLOPE 1.48, HEPG2TOX_R_SQUARED 0.88, PBLUC_HILL_SLOPE 12.1, PBLUC_R_SQUARED 0.667, read-out: LUCIFERASE INFECTION ASSAY - IC50): 2.95 µM
CC(C)NC(=O)c1c(NC(=O)c2cccc(C#N)c2)nc2ccccn12	7.68 µM	IC50 (HEPG2TOX_HILL_SLOPE 1.47, HEPG2TOX_R_SQUARED 0.952, PBLUC_HILL_SLOPE 19.2, PBLUC_R_SQUARED 0.401, read-out: LUCIFERASE INFECTION ASSAY - IC50): 6.85 µM
COc1ccc(Nc2ccn3ncc(-c4ccc(OC)c(OC)c4)c3n2)cn1	1.73 µM	IC50 (HEPG2TOX_HILL_SLOPE 1.44, HEPG2TOX_R_SQUARED 0.951, PBLUC_HILL_SLOPE 2.71, PBLUC_R_SQUARED 0.798, read-out: LUCIFERASE INFECTION ASSAY - IC50): 0.768 µM
Cc1ccc(NC(=O)N2CCCN(c3nc4ccc(Cl)cc4s3)CC2)cc1	> 8.23 µM	IC50 (HEPG2TOX_HILL_SLOPE 1.45, HEPG2TOX_R_SQUARED 0.845, PBLUC_HILL_SLOPE 2.38, PBLUC_R_SQUARED 0.538, read-out: LUCIFERASE INFECTION ASSAY - IC50): 3.62 µM

SMILES	IC90	also measured
COc1ccc(-c2cnn3ccc(NCc4cccnc4)nc23)cc1OC	5.49 µM	IC50 (HEPG2TOX_HILL_SLOPE 1.45, HEPG2TOX_R_SQUARED 0.956, PBLUC_HILL_SLOPE 2.78, PBLUC_R_SQUARED 0.698, read-out: LUCIFERASE INFECTION ASSAY - IC50): 2.49 µM
N#C/C(=N\Nc1cccc(Cl)c1)C(=O)c1cc(-c2ccccc2)c(C(F)(F)F)s1	1.5 µM	IC50 (HEPG2TOX_HILL_SLOPE 1.47, HEPG2TOX_R_SQUARED 0.986, PBLUC_HILL_SLOPE 2.41, PBLUC_R_SQUARED 0.872, read-out: LUCIFERASE INFECTION ASSAY - IC50): 0.605 µM
COc1ccc(-c2csc3ncnc(NCCCCCc4n[nH]c(N)c4C#N)c23)cc1	3.53 µM	IC50 (HEPG2TOX_HILL_SLOPE 1.47, HEPG2TOX_R_SQUARED 0.942, PBLUC_HILL_SLOPE 36.2, PBLUC_R_SQUARED 0.623, read-out: LUCIFERASE INFECTION ASSAY - IC50): 3.33 µM
Cc1ccc(Cl)cc1N1CCN(C(=O)NCc2ccco2)CC1	> 10 µM	IC50 (HEPG2TOX_HILL_SLOPE 1.45, HEPG2TOX_R_SQUARED 0.763, PBLUC_HILL_SLOPE 1.12, PBLUC_R_SQUARED 0.27, read-out: LUCIFERASE INFECTION ASSAY - IC50): 5.99 µM
CCCn1c(SCC(=O)N(C)C(C)c2nc3ccccc3s2)nc2sc3c(c2c1=O)CCC3 (configuration not stated)	3.37 µM	IC50 (HEPG2TOX_HILL_SLOPE 1.5, HEPG2TOX_R_SQUARED 0.705, PBLUC_HILL_SLOPE 172, PBLUC_R_SQUARED 0.534, read-out: LUCIFERASE INFECTION ASSAY - IC50): 3.33 µM
CCC(=O)c1cn(S(=O)(=O)c2ccc(C)cc2)c2ccccc12	3.32 µM	IC50 (HEPG2TOX_HILL_SLOPE 1.47, HEPG2TOX_R_SQUARED 0.948, PBLUC_HILL_SLOPE 16.3, PBLUC_R_SQUARED 0.746, read-out: LUCIFERASE INFECTION ASSAY - IC50): 2.9 µM
Nc1c(C(=O)c2ccccc2)sc(Nc2ccccc2)c1C(=O)Nc1ccc(SC(F)F)cc1	1.28 µM	IC50 (HEPG2TOX_HILL_SLOPE 1.49, HEPG2TOX_R_SQUARED 0.921, PBLUC_HILL_SLOPE 11.4, PBLUC_R_SQUARED 0.694, read-out: LUCIFERASE INFECTION ASSAY - IC50): 1.05 µM
COc1ccc(C=C(c2nc3ccccc3s2)c2nc3ccccc3s2)c(OC)c1OC	> 10 µM	IC50 (HEPG2TOX_HILL_SLOPE 1.46, HEPG2TOX_R_SQUARED 0.78, PBLUC_HILL_SLOPE 2.12, PBLUC_R_SQUARED 0.479, read-out: LUCIFERASE INFECTION ASSAY - IC50): 7.05 µM
Cc1ccc(-c2nc(C(=O)NC3CC3)cc3c2[nH]c2ccccc23)cc1	7.38 µM	IC50 (HEPG2TOX_HILL_SLOPE 1.45, HEPG2TOX_R_SQUARED 0.961, PBLUC_HILL_SLOPE 3.11, PBLUC_R_SQUARED 0.33, read-out: LUCIFERASE INFECTION ASSAY - IC50): 3.64 µM
CC(C)(C)C1CCc2[nH]c(=O)sc2C1 (configuration not stated)	1.31 µM	IC50 (HEPG2TOX_HILL_SLOPE 1.45, HEPG2TOX_R_SQUARED 0.907, PBLUC_HILL_SLOPE 17.6, PBLUC_R_SQUARED 0.512, read-out: LUCIFERASE INFECTION ASSAY - IC50): 1.16 µM
Cc1nc(NCc2ccc(N3CCN(C)CC3)nc2)c2c(-c3ccccc3)csc2n1	3.73 µM	IC50 (HEPG2TOX_HILL_SLOPE 1.47, HEPG2TOX_R_SQUARED 0.785, PBLUC_HILL_SLOPE 14.9, PBLUC_R_SQUARED 0.788, read-out: LUCIFERASE INFECTION ASSAY - IC50): 3.22 µM
Cc1nnsc1C(=O)Nc1cc(C(F)(F)F)cc(C(F)(F)F)c1	1.4 µM	IC50 (HEPG2TOX_HILL_SLOPE 1.48, HEPG2TOX_R_SQUARED 0.897, PBLUC_HILL_SLOPE 8.57, PBLUC_R_SQUARED 0.681, read-out: LUCIFERASE INFECTION ASSAY - IC50): 1.08 µM
CCc1ccc(NC(=O)COc2c(Cl)cc(Cl)c3ccc(C)nc23)cc1	1.31 µM	IC50 (HEPG2TOX_HILL_SLOPE 1.5, HEPG2TOX_R_SQUARED 0.996, PBLUC_HILL_SLOPE 3.18, PBLUC_R_SQUARED 0.331, read-out: LUCIFERASE INFECTION ASSAY - IC50): 0.657 µM
N#C/C(=N\Nc1ccc(OC(F)(F)F)cc1)C(=O)C1CC1	> 11.1 µM	IC50 (HEPG2TOX_HILL_SLOPE 1.44, HEPG2TOX_R_SQUARED 0.96, PBLUC_HILL_SLOPE 2.87, PBLUC_R_SQUARED 0.372, read-out: LUCIFERASE INFECTION ASSAY - IC50): 7.46 µM
O=C1NC(=O)/C(=C\c2ccc(Cl)c(Cl)c2)N1	5.37 µM	IC50 (HEPG2TOX_HILL_SLOPE 1.44, HEPG2TOX_R_SQUARED 0.948, PBLUC_HILL_SLOPE 2.09, PBLUC_R_SQUARED 0.686, read-out: LUCIFERASE INFECTION ASSAY - IC50): 1.87 µM
